Earlier results, collected in patent publication US20260232602A1, “DRUG DELIVERY SYSTEMS AND METHODS COMPRISING POLYSIALIC ACID AND/OR OTHER POLYMERS” (Universidade de Santiago de Compostela, priority 2017, published 2026).

Details: stated with the drug's Mw and supplier

In the case of CC(=O)O[C@@]12CO[C@@H]1C[C@H](O)[C@@]1(C)C(=O)[C@H](O)C3=C(C)[C@@H](OC(=O)[C@H](O)[C@@H](NC(=O)OC(C)(C)C)c4ccccc4)C[C@@](O)([C@@H](OC(=O)c4ccccc4)[C@H]21)C3(C)C [docetaxel], the “Log P” value is listed as 2.6.

For C/C(=C\c1csc(C)n1)[C@@H]1C[C@@H]2O[C@]2(C)CCC[C@H](C)[C@H](O)[C@@H](C)C(=O)C(C)(C)[C@@H](O)CC(=O)O1 [patupilone], the “Log P” value is given as 3.7.
